Test results as given in patent US4749798A, “Fluoro coumarins as antilymphoedema agents” (priority 1984, dated 1988).
“Also recorded” adds a separate entry of the source. Read-outs that look alike come from different tables or passages of the source.

Experiments:
dog liver microsomes = assay: incubation of labelled C^14-6 fluoro coumarin with dog liver microsomes; format: in vitro ADME; details: C^14-labelled
Procedure: Using the method reported by T. C. Butler et al. (Arch. Intern. Pharmacod. Ther., 228, 4 (1977)), labelled C^14 -6 fluoro coumarin was incubated with dog liver microsomes.

[1] = system: S-typhimurium TA 1535, TA 1537, TA 1538, TA 98 and TA 100; assay: Ames test; format: cell-based
S. Pombae = assay: forward mutation in S. Pombae; format: cell-based
[2] = system: carrageenan induced edema of the rats hind paw; assay: carrageenan induced edema of the rat hind paw; format: in vivo
From the text: 6-fluoro coumarin and the compounds of the invention are also effective in the management of the acute inflammation.
The carrageenan edema test proposed by Winter C. A., Risley A., Noss G. W. (Proc. Soc. Exp. Biol., 101, 544, 1962) was used.
The compounds, administered i.p. 30' before the carrageenan as suspension in 1% aqueous carboxymethylcellulose homogeneized by ultrasounds, were compared with coumarin at different dose-levels on 6 animal groups. The percent reduction of the rat hind paw edema was evaluated at different times.

[3] = system: burning induced oedema of hind paws; assay: burning induced oedema test; format: in vivo, Sprague-Dawley male rats; details: for % inhibition / Paw volume, DV: 12 h
Procedure: Reduction of the burning induced oedema test has been also used to evidentiate the antiinflammatory activity and the proteolytic mechanism of action of the compounds of the invention. 18 hours-fasted Sprague-Dawley male rats, body weight: 170-220 g, are used in this testing procedure. The animals are divided into five animal groups and the volume (in ml) of the posterior hind paws is measured before these paws are burnt by immersion for 22 seconds in 55° C. heated water. 15 minutes after burning, the animals are treated, by oral route, with different dosages of the investigated compounds and placebo. The volume of paws is measured 6, 12 and 18 hours after burning and the increased volume of the paws is evaluated.

[4] = system: blood-dot area in right ear; assay: re-absorption of citrated blood injected in the rabbit ear (blood-dot area); format: in vivo, New Zealand rabbits; details: oral, placebo 20.3
Procedure: Finally, the compounds of the invention are able to induce re-absorption of the total citrated blood when blood is injected in the right ear of New Zealand rabbits. 12 hours after blood inoculation into ear, the animal were randomized and treated with scalar doses of the investigated compounds administered for 4 days by oral route. The blood-dot areas are evaluated and compared with the areas of the control animals treated with placebo only. In table 5 are reported some experimental results.

coagulation factors = assay: coagulation parameters (DPTT, Hepato quick, clotting time); format: in vivo
lymphoedemas = assay: preliminary experiments in humans with primary and secondary lymphoedemas; format: in vivo; details: capsules of 50 mg
Procedure: So, a very restricted number of selected male and female patients, affected by primary and secondary lymphoedemas, with intact renal and hepatic functions, was treated with the compounds of the invention, particularly with 6-fluoro coumarin.
In the absence of any other therapeutic treatment, the selected schedule of treatment foresees administration of capsules, many times pro die.
The diagnostic parameters investigated are: general and gastric clinical tolerability; number of red blood cell, leukocites, neutrophiles and platelets; haemoglobin concentration, γ-glutamyl transpeptidase; serum creatinine and volume of edema.

[5] = system: mouse peritoneal macrophages; assay: proteolysis by mouse peritoneal macrophages; details: for Mean ICA-soluble fragm. (24 h-0 h) x 10^6 cell: 10 mice; for minimal effective dose: Mus musculus, Peritoneal macrophage, ip; for increase in proteolysis: at the higher doses, coumarin at similar doses
[6] = Occupational Safety and Health Administration; cited from earlier work
[7] = cited from earlier work
coagulation = details: Schofield; Feuer et al.; cited from earlier work
[8] = system: S. typhimurium (TA 1535, TA 1537, TA 1538, TA 98, TA 100); details: cited from earlier work
[9] = metabolism after oral administration to rabbits, analysis of faeces and urines over 24 hours; details: rabbit, coumarin in similar experimental conditions
[10] = oral, 2 consecutive days, equimolecular doses

## O=c1ccc2cc(F)ccc2o1 [6-fluoro coumarin, 6-fluoro-2H-1-benzopyran-2-one]
Dog liver microsomes
  metabolism by cytochromes: not metabolized by cytochromes
  recovery of unchanged compound: 80%
[1]
  mutagenic property in the Ames test: no mutagenic property is evident
S. Pombae
  effects in forward mutation test: No kinds of effects are noticed
[2]; "at least 1.5-2.5 times more active than coumarin"
  activity relative to coumarin: 1.5-2.5 times
[2]; at all the times (1; 3; 4 and 5 h)
  reduction of carrageenan induced edema: reduce carrageenan induced edema of the rats hind paw at all the times
[3]; 12.5 mg/kg oral
  % inhibition: no sign
  Paw volume, DV: 0.86 mL
[3]; 12.5 mg/kg oral, basal 1.348
  Paw volume, 12 h value: 2.207 mL
[3]; 25.0 mg/kg oral
  % inhibition: 37%
  Paw volume, DV: 0.56 mL
[3]; 25.0 mg/kg oral, basal 1.504
  Paw volume, 12 h value: 2.060 mL
[3]; 50.0 mg/kg oral
  % inhibition: 67%
  Paw volume, DV: 0.29 mL
[3]; 50.0 mg/kg oral, basal 1.464
  Paw volume, 12 h value: 1.760 mL
[3]; 1000.0 mg/kg oral
  % inhibition: 71%
  Paw volume, DV: 0.26 mL
[3]; 1000.0 mg/kg oral, basal 1.416
  Paw volume, 12 h value: 1.676 mL
[4]; 25 mg/kg pro die
  % reduction of blood-dot area after 4 days: 64.13%
[4]; 50 mg/kg pro die
  % reduction of blood-dot area after 4 days: 92%
Coagulation factors; [10]
  effect on DPTT: not able to modify
  effect on Hepato quick: not able to modify
  effect on clotting time: not able to modify
lymphoedemas; 10 treated patients, all dosages investigated
  tolerability: excellent
lymphoedemas; of 10 treated patients
  patients with significant reduction of the oedema volume: 4 patients
S. cerevisiae
  effects in mitotic genic conversion test: No kinds of effects are noticed
Somatic mammalian cells
  effects in gene mutation test: No kinds of effects are noticed
[5]; 3.12 mg/kg i.p.
  Significance of difference from control: NS (p > 0.05)
  Mean ICA-soluble fragm. (24 h-0 h) x 10^6 cell: 0.22 mM glycin
[5]; 6.25 mg/kg i.p.
  Significance of difference from control: NS (p > 0.05)
  Mean ICA-soluble fragm. (24 h-0 h) x 10^6 cell: 0.19 mM glycin
[5]; 12.5 mg/kg i.p.
  Significance of difference from control: * (0.05 > p > 0.01)
  Mean ICA-soluble fragm. (24 h-0 h) x 10^6 cell: 0.29 mM glycin
[5]; 25 mg/kg i.p.
  Mean ICA-soluble fragm. (24 h-0 h) x 10^6 cell: 0.37 mM glycin
[5]; 50 mg/kg i.p.
  Significance of difference from control: * (0.05 > p > 0.01)
  Mean ICA-soluble fragm. (24 h-0 h) x 10^6 cell: 0.34 mM glycin
[5]; 50 mg/kg i.p. in sesame oil, 10 replication, coumarin = 1
  Potency ratio in the proteolytic test: 11.5
[5]; 100 mg/kg i.p.
  Mean ICA-soluble fragm. (24 h-0 h) x 10^6 cell: 0.40 mM glycin
[5]; read-out: dosage level with proteolysis significantly greater than the control
  minimal effective dose: > 6.25 mg/kg
[5]; read-out: dose from which stimulation of protein digestion starts
  minimal effective dose: 12.5 mg/kg
[5]
  increase in proteolysis: threefold

## O=c1ccc2ccccc2o1 [coumarin, 2H-1-benzopyran-2-one]
S. Pombae
  effects in forward mutation test: positive responder
[2]; 1.55 mg/kg i.p., 3 h
  % Reduction of the edema by carrageenan: 23%
[2]; 3.12 mg/kg i.p., 3 h
  % Reduction of the edema by carrageenan: 53%
[2]; 3.12 mg/kg i.p., 5 h
  % Reduction of the edema by carrageenan: 53.4%
[2]; 6.25 mg/kg i.p., 3 h
  % Reduction of the edema by carrageenan: 78%
[3]; 50 mg/kg
  inhibition: 35%
  times less active than 6-fluoro coumarin: about 2 times
[4]; 50 mg/kg pro die
  % reduction of blood-dot area after 4 days: 67.31%
Coagulation factors; in vivo, po
  effect on Hepato quick: moderately influences Hepato quick (in decreasing way)
S. cerevisiae
  effects in mitotic genic conversion test: positive responder
Somatic mammalian cells
  effects in gene mutation test: positive responder
[6]
  carcinogen category: category I carcinogen
[7]
  metabolism in man: extensively metabolized in man upon first pass through the liver; also recorded: C-3 hydroxylation practically absent in man
coagulation
  anticoagulant activity: anticoagulant activites
[8]
  mutagenicity: weak mutagenic substance
[5]
  increase in proteolysis: 2.2 fold
[9]
  metabolism (hydroxylation / lactone ring opening): metabolized by hydroxylation and also by δ-lactone ring opening; also recorded: metabolized by hydroxylation and by δ-lacton ring opening
